# Measurements published in patent US20050112573A1, “Method of detecting toxic substance” (priority 2001, published 2005).
# Tested on: yeast genes (level of expressed mRNA)
# Assay: DNA chip analysis of expressed mRNA of yeast genes after 2 h culture with a toxic chemical substance
# Assay type: cell-based, Saccharomyces cerevisiae S288C
# Method: Yeast (Saccharomyces cerevtisiae S288C (α SUC2mal mel gap2 CUP1)) were cultured at 25° C. on YPD medium (yeast extract 1%, polypepton 2%, glucose 2%). One of toxic chemical substances was added to the cell at logarithmic growth phase, and the cell was further cultured for two hours. Cell was cultured without any chemical substance in the same condition, and was used as control. Concentrations of the chemical substances were defined to inhibit the growth of the yeast but not lead to death.
# After the completion of cultivation, the culture was centrifuged to collect the cells. To the cells, sodium acetate buffer (50 mM sodium acetate, 10 mM EDTA, 1% SDS) was added, and the mixture was shaken at 65° C. for five minutes, followed by returning to room temperature, and obtaining the supernatant, which procedure was repeated two times. To the supernatant, ½ amount of a solution of phenol/chloroform was added, and the mixture was centrifuged to give a supernatant, which was added with an equal amount of chloroform, and the mixture was centrifuged to give a supernatant. To the supernatant, an equal amount of isopropanol containing 0.3 M sodium acetate was added, and the mixture was allowed to stand at room temperature for 30 minutes, after which the mixture was centrifuged to give a sediment of the whole RNAs. Seventy % ethanol was added to the sediment, and the mixture was again centrifuged to give a sediment, which was then dried and dissolved in water. mRNA was isolated from the whole RNAs as followings. In view of the fact that a poly A chain is attached to the 3′ terminus of mRNA, a polynucleotide having a poly T structure which was immobilized on the surface of latex beads was used to trap the mRNA, and then the mRNA was washed and eluted with spine column (Oligotex-dT30<Super>mRNA Purification Kit, Takara). Reverse transcription of the mRNA was conducted with a reverse transcriptase (Super Script II Reverse Transcriptase; catalogue No. 18064-014, GibcoBRL) using fluorescence-labeled nucleotides to give cDNAs that were introduced with Cy3-dUTP or Cy5-dUTP during the reverse transcription.
# The labeled cDNAs were dissolved in TE buffer (10 mM Tris-HCl/1 mM EDTA, pH8.0), and the solution was dropped on the DNA chip containing the whole genes of yeast (DNA Chip Research Inc. Japan) so that the cDNAs were hybridized on the DNA chip at 65° C. for over 12 hours. The fluoresces intensity of the DNA chip was read with a scanner, and the ratio relative to the fluorescence intensity resulting from the absence of chemical substance was estimated as the following, which is shown in Tables 1 to 9: [formula]
# In the Tables, “Intensity” indicated in the rightmost column is a value of the level of expressed mRNA of each gene in control cells as divided by the average level of the expressions of the whole genes.
substance,measurement,setting,value
CdCl2 [(2)],The level of expressed mRNA in the presence of chemical substance/,"yeast gene YKL086W, ratio to control without chemical",1.1
same,The level of expressed mRNA in the presence of chemical substance/The level of expressed mRNA in the absence of chemical substance,yeast gene YKL096W,0.6
same,The level of expressed mRNA in the presence of chemical substance/,"yeast gene YKL151C, ratio to control without chemical substance, 2 h culture",3.1
same,The level of expressed mRNA in the presence of chemical substance/,"yeast gene YKL153W, ratio to control without chemical substance, 2 h culture",1.4
same,The level of expressed mRNA in the presence of chemical substance/The level of expressed mRNA in the absence of chemical substance,yeast gene YKL165C,2.0
same,The level of expressed mRNA in the presence of chemical substance/The level of expressed mRNA in the absence of chemical substance,yeast gene YKL193C,0.8
same,The level of expressed mRNA in the presence of chemical substance/,"yeast gene YKL195W, ratio to control without chemical substance, 2 h culture",0.5
same,The level of expressed mRNA in the presence of chemical substance/in the absence of chemical substance,yeast gene YKR009C,1.2
same,The level of expressed mRNA in the presence of chemical substance/,"yeast gene YKR091W, ratio to control without chemical",2.3
same,The level of expressed mRNA in the presence of chemical substance/,"yeast gene YLR054C, ratio to control without chemical substance, 2 h culture",1.5
same,The level of expressed mRNA in the presence of chemical substance/The level of expressed mRNA in the absence of chemical substance,yeast gene YLR120C,1.9
same,The level of expressed mRNA in the presence of chemical substance/The level of expressed mRNA in the absence of chemical substance,yeast gene YLR136C,9.0
same,The level of expressed mRNA in the presence of chemical substance/,"yeast gene YLR149C, ratio to control without chemical substance, 2 h culture",1.9
same,The level of expressed mRNA in the presence of chemical substance/,"yeast gene YLR152C, ratio to control without chemical substance, 2 h culture",1.3
same,The level of expressed mRNA in the presence of chemical substance/The level of expressed mRNA in the absence of chemical substance,yeast gene YLR178C,6.9
same,The level of expressed mRNA in the presence of chemical substance/,"yeast gene YLR194C, ratio to control without chemical",2.2
same,The level of expressed mRNA in the presence of chemical substance/The level of expressed mRNA in the absence of chemical substance,yeast gene YLR250W,1.0
same,The level of expressed mRNA in the presence of chemical substance/,"yeast gene YLR324W, ratio to control without chemical substance, 2 h culture",1.2
same,The level of expressed mRNA in the presence of chemical substance/The level of expressed mRNA in the absence of chemical substance,yeast gene YLR327C,3.3
same,The level of expressed mRNA in the presence of chemical substance/,"yeast gene YLR350W, ratio to control without chemical substance, 2 h culture",1.9
same,The level of expressed mRNA in the presence of chemical substance/in the absence of chemical substance,yeast gene YLR351C,1.4
same,The level of expressed mRNA in the presence of chemical substance/The level of expressed mRNA in the absence of chemical substance,yeast gene YLR356W,2.9
same,The level of expressed mRNA in the presence of chemical substance/The level of expressed mRNA in the absence of chemical substance,yeast gene YLR362W,1.2
same,The level of expressed mRNA in the presence of chemical substance/in the absence of chemical substance,yeast gene YLR375W,1.5
same,The level of expressed mRNA in the presence of chemical substance/,"yeast gene YLR387C, ratio to control without chemical substance, 2 h culture",1.6
same,The level of expressed mRNA in the presence of chemical substance/The level of expressed mRNA in the absence of chemical substance,yeast gene YLR391W,0.7
same,The level of expressed mRNA in the presence of chemical substance/The level of expressed mRNA in the absence of chemical substance,yeast gene YLR429W,1.0
same,The level of expressed mRNA in the presence of chemical substance/,"yeast gene YLR460C, ratio to control without chemical substance, 2 h culture",2.1
same,The level of expressed mRNA in the presence of chemical substance/,"yeast gene YML117W, ratio to control without chemical substance, 2 h culture",2.2
same,The level of expressed mRNA in the presence of chemical substance/The level of expressed mRNA in the absence of chemical substance,yeast gene YMR004W,0.9
same,The level of expressed mRNA in the presence of chemical substance/,"yeast gene YMR009W, ratio to control without chemical substance, 2 h culture",1.9
same,The level of expressed mRNA in the presence of chemical substance/,"yeast gene YMR067C, ratio to control without chemical substance, 2 h culture",0.9
same,The level of expressed mRNA in the presence of chemical substance/,"yeast gene YMR090W, ratio to control without chemical substance, 2 h culture",9.5
same,The level of expressed mRNA in the presence of chemical substance/The level of expressed mRNA in the absence of chemical substance,yeast gene YMR094W,0.5
same,The level of expressed mRNA in the presence of chemical substance/,"yeast gene YMR095C, ratio to control without chemical",2.0
same,The level of expressed mRNA in the presence of chemical substance/,"yeast gene YMR097C, ratio to control without chemical substance, 2 h culture",1.0
same,The level of expressed mRNA in the presence of chemical substance/,"yeast gene YMR102C, ratio to control without chemical substance, 2 h culture",2.9
same,The level of expressed mRNA in the presence of chemical substance/The level of expressed mRNA in the absence of chemical substance,yeast gene YMR104C,14.3
same,The level of expressed mRNA in the presence of chemical substance/,"yeast gene YMR107W, ratio to control without chemical substance, 2 h culture",3.9
same,The level of expressed mRNA in the presence of chemical substance/,"yeast gene YMR180C, ratio to control without chemical substance, 2 h culture",0.9
same,The level of expressed mRNA in the presence of chemical substance/,"yeast gene YMR184W, ratio to control without chemical substance, 2 h culture",5.4
same,The level of expressed mRNA in the presence of chemical substance/,"yeast gene YMR191W, ratio to control without chemical substance, 2 h culture",2.4
same,The level of expressed mRNA in the presence of chemical substance/The level of expressed mRNA in the absence of chemical substance,yeast gene YMR219W,1.1
same,The level of expressed mRNA in the presence of chemical substance/The level of expressed mRNA in the absence of chemical substance,yeast gene YMR226C,1.8
same,The level of expressed mRNA in the presence of chemical substance/in the absence of chemical substance,yeast gene YMR267W,1.8
same,The level of expressed mRNA in the presence of chemical substance/The level of expressed mRNA in the absence of chemical substance,yeast gene YMR275C,0.7
same,The level of expressed mRNA in the presence of chemical substance/The level of expressed mRNA in the absence of chemical substance,yeast gene YMR276W,1.4
same,The level of expressed mRNA in the presence of chemical substance/in the absence of chemical substance,yeast gene YMR278W,1.7
same,The level of expressed mRNA in the presence of chemical substance/in the absence of chemical substance,yeast gene YMR293C,1.5
same,The level of expressed mRNA in the presence of chemical substance/,"yeast gene YMR295C, ratio to control without chemical substance, 2 h culture",1.0
same,The level of expressed mRNA in the presence of chemical substance/The level of expressed mRNA in the absence of chemical substance,yeast gene YMR314W,1.2
same,The level of expressed mRNA in the presence of chemical substance/,"yeast gene YMR316W, ratio to control without chemical substance, 2 h culture",2.9
same,The level of expressed mRNA in the presence of chemical substance/The level of expressed mRNA in the absence of chemical substance,yeast gene YNL006W,2.1
same,The level of expressed mRNA in the presence of chemical substance/The level of expressed mRNA in the absence of chemical substance,yeast gene YNL007C,2.4
same,The level of expressed mRNA in the presence of chemical substance/,"yeast gene YNL044W, ratio to control without chemical substance, 2 h culture",0.9
